Data as given in PubChem BioAssay (NCI).
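How tested: cells in 96-well plates exposed to compound for 48 hours at five concentrations. GI50 is the concentration that inhibits growth by half. At the TGI there is no net growth.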

Key:
Experiment in all cases: DTP human tumour cell line panel, 48 h
UO-31 renal = test system: UO-31 renal
SF-295 CNS = test system: SF-295 CNS
NCI-H460 lung = test system: NCI-H460 lung
786-0 renal = test system: 786-0 renal
ACHN renal = test system: ACHN renal
HT29 colon = test system: HT29 colon
NCI-H226 lung = test system: NCI-H226 lung
CCRF-CEM leukemia = test system: CCRF-CEM leukemia
OVCAR-3 ovarian = test system: OVCAR-3 ovarian
BT-549 breast = test system: BT-549 breast
LOX IMVI melanoma = test system: LOX IMVI melanoma
HCT-116 colon = test system: HCT-116 colon
K-562 leukemia = test system: K-562 leukemia
U251 CNS = test system: U251 CNS
COLO 205 colon = test system: COLO 205 colon
SF-539 CNS = test system: SF-539 CNS
RXF 393 renal = test system: RXF 393 renal
DU-145 prostate = test system: DU-145 prostate
SNB-19 CNS = test system: SNB-19 CNS
MCF7 breast = test system: MCF7 breast
SK-MEL-28 melanoma = test system: SK-MEL-28 melanoma
T-47D breast = test system: T-47D breast
MDA-MB-435 = test system: MDA-MB-435
SW-620 colon = test system: SW-620 colon
MDA-MB-231 breast = test system: MDA-MB-231 breast
HL-60(TB) leukemia = test system: HL-60(TB) leukemia
NCI-H23 lung = test system: NCI-H23 lung
IGROV1 ovarian = test system: IGROV1 ovarian
RPMI-8226 leukemia = test system: RPMI-8226 leukemia
TK-10 renal = test system: TK-10 renal
M14 melanoma = test system: M14 melanoma
HOP-92 NSCLC = test system: HOP-92 NSCLC
A498 renal = test system: A498 renal
CAKI-1 renal = test system: CAKI-1 renal
PC-3 prostate = test system: PC-3 prostate
OVCAR-4 ovarian = test system: OVCAR-4 ovarian
HCC-2998 colon = test system: HCC-2998 colon
NCI/ADR-RES ovarian = test system: NCI/ADR-RES ovarian
UACC-62 melanoma = test system: UACC-62 melanoma
SK-MEL-5 melanoma = test system: SK-MEL-5 melanoma
SN12C renal = test system: SN12C renal
NCI-H522 lung = test system: NCI-H522 lung
A549 NSCLC = test system: A549 NSCLC
OVCAR-8 ovarian = test system: OVCAR-8 ovarian
SR leukemia = test system: SR leukemia
HOP-62 NSCLC = test system: HOP-62 NSCLC
EKVX NSCLC = test system: EKVX NSCLC
UACC-257 melanoma = test system: UACC-257 melanoma
HS 578T breast = test system: HS 578T breast
SF-268 CNS = test system: SF-268 CNS
OVCAR-5 ovarian = test system: OVCAR-5 ovarian
SNB-75 CNS = test system: SNB-75 CNS
MALME-3M melanoma = test system: MALME-3M melanoma
HCT-15 colon = test system: HCT-15 colon
SK-OV-3 ovarian = test system: SK-OV-3 ovarian
KM12 colon = test system: KM12 colon

With `S=C(Nc1ccc(Cl)cc1)Nc1ccc(-c2nc3ccccc3[nH]2)cc1` the GI50 (UO-31 renal) was 5.86 µM, the TGI (UO-31 renal) was > 29.4 µM and the GI50 (SF-295 CNS) was 0.757 µM. For the same compound, the TGI (SF-295 CNS) was 4.24 µM, the GI50 (NCI-H460 lung) was 9.28 µM and the TGI (NCI-H460 lung) was > 43.4 µM. It also gave a GI50 (786-0 renal) of 10.2 µM, a TGI (786-0 renal) of 22.8 µM and a GI50 (ACHN renal) of 7.08 µM. The TGI (ACHN renal) was 31.2 µM, the GI50 (HT29 colon) was 4.06 µM and the TGI (HT29 colon) was 14.9 µM. For the same compound, the GI50 (NCI-H226 lung) was 10 µM, the TGI (NCI-H226 lung) was > 46.6 µM and the GI50 (CCRF-CEM leukemia) was 4.37 µM. The TGI (CCRF-CEM leukemia) was > 63.6 µM, the GI50 (OVCAR-3 ovarian) was 1.33 µM and the GI50 (BT-549 breast) was 19.1 µM. For the same compound, the TGI (BT-549 breast) was 53.1 µM, the GI50 (LOX IMVI melanoma) was 5.05 µM and the TGI (LOX IMVI melanoma) was 11.7 µM. For the same compound, the GI50 (HCT-116 colon) was 12.3 µM, the TGI (HCT-116 colon) was 24.7 µM and the GI50 (K-562 leukemia) was 5.2 µM. The TGI (K-562 leukemia) was 31.3 µM, the GI50 (U251 CNS) was 5.06 µM and the TGI (U251 CNS) was 18.1 µM. For the same compound, the GI50 (COLO 205 colon) was 2.65 µM, the TGI (COLO 205 colon) was > 35.8 µM and the GI50 (SF-539 CNS) was 5.27 µM. For the same compound, the TGI (SF-539 CNS) was 13.5 µM, the GI50 (RXF 393 renal) was 5.86 µM and the TGI (RXF 393 renal) was > 20.5 µM. It also gave a GI50 (DU-145 prostate) of 12.1 µM, a GI50 (SNB-19 CNS) of 9.29 µM and a TGI (SNB-19 CNS) of 36.5 µM. The TGI (MCF7 breast) was > 41.5 µM, the TGI (SK-MEL-28 melanoma) was 35.5 µM and the GI50 (T-47D breast) was 5.34 µM. It also gave a TGI (T-47D breast) of 32.7 µM, a GI50 (MDA-MB-435) of 9.11 µM and a TGI (MDA-MB-435) of 26.6 µM. For the same compound, the GI50 (SW-620 colon) was 22.4 µM, the TGI (SW-620 colon) was > 58.8 µM and the GI50 (MDA-MB-231 breast) was 3.14 µM. The TGI (MDA-MB-231 breast) was 12.8 µM, the GI50 (HL-60(TB) leukemia) was 7.26 µM and the TGI (HL-60(TB) leukemia) was > 66 µM. It also gave a GI50 (NCI-H23 lung) of 3.89 µM, a TGI (NCI-H23 lung) of 17.5 µM and a GI50 (IGROV1 ovarian) of 7.02 µM. For the same compound, the TGI (IGROV1 ovarian) was 23.7 µM, the GI50 (RPMI-8226 leukemia) was 2.23 µM and the TGI (RPMI-8226 leukemia) was > 21.2 µM. It also gave a GI50 (TK-10 renal) of 7.73 µM, a TGI (TK-10 renal) of 36.1 µM and a GI50 (M14 melanoma) of 7.54 µM. For the same compound, the TGI (M14 melanoma) was > 42 µM, the GI50 (HOP-92 NSCLC) was 1.53 µM and the TGI (HOP-92 NSCLC) was 12.3 µM. It also gave a GI50 (A498 renal) of 23.6 µM, a TGI (A498 renal) of 55.5 µM and a GI50 (CAKI-1 renal) of 2.7 µM. For the same compound, the TGI (CAKI-1 renal) was 12.5 µM, the GI50 (PC-3 prostate) was 5.37 µM and the TGI (PC-3 prostate) was 35.8 µM. The GI50 (OVCAR-4 ovarian) was 15.4 µM, the TGI (OVCAR-4 ovarian) was > 84.3 µM and the GI50 (HCC-2998 colon) was 1.39 µM. The TGI (HCC-2998 colon) was 2.69 µM, the GI50 (NCI/ADR-RES ovarian) was 17.2 µM and the TGI (NCI/ADR-RES ovarian) was > 57.4 µM. The GI50 (UACC-62 melanoma) was 5.15 µM, the TGI (UACC-62 melanoma) was 14.8 µM and the GI50 (SK-MEL-5 melanoma) was 6.37 µM. The TGI (SK-MEL-5 melanoma) was 23.2 µM, the GI50 (SN12C renal) was 6.55 µM and the TGI (SN12C renal) was 23.7 µM. The GI50 (NCI-H522 lung) was 4.63 µM, the TGI (NCI-H522 lung) was 13.3 µM and the GI50 (A549 NSCLC) was 14.3 µM. The TGI (A549 NSCLC) was > 54.3 µM, the GI50 (OVCAR-8 ovarian) was 14.3 µM and the TGI (OVCAR-8 ovarian) was > 59.7 µM. The GI50 (SR leukemia) was 8.07 µM, the TGI (SR leukemia) was > 21.5 µM and the GI50 (HOP-62 NSCLC) was 15 µM. For the same compound, the TGI (HOP-62 NSCLC) was 30 µM, the GI50 (EKVX NSCLC) was 13.3 µM and the TGI (EKVX NSCLC) was 52.5 µM. The GI50 (UACC-257 melanoma) was 14.7 µM, the TGI (UACC-257 melanoma) was > 52 µM and the GI50 (HS 578T breast) was 6.49 µM. For the same compound, the TGI (HS 578T breast) was 60.6 µM, the GI50 (SF-268 CNS) was 12.2 µM and the TGI (SF-268 CNS) was > 68.7 µM. It also gave a GI50 (OVCAR-5 ovarian) of 20.4 µM, a TGI (OVCAR-5 ovarian) of 40.8 µM and a GI50 (SNB-75 CNS) of 15.7 µM. For the same compound, the TGI (SNB-75 CNS) was > 55 µM, the GI50 (MALME-3M melanoma) was 7.19 µM and the TGI (MALME-3M melanoma) was 32.1 µM. The GI50 (HCT-15 colon) was 3.82 µM, the TGI (HCT-15 colon) was 12.9 µM and the GI50 (SK-OV-3 ovarian) was 17.7 µM. The TGI (SK-OV-3 ovarian) was > 100 µM, the GI50 (KM12 colon) was 4.45 µM and the TGI (KM12 colon) was > 62 µM.
